Patent US20110086797A1, “CONTROL OF SPORE GERMINATION” (priority 2007, published 2011)
Entries after “also recorded” stand apart in the source; their conditions may differ. Where two headings read alike, the source gives them in different places.

Key:
B. subtilis spores [1] = test: Measurement of germination by loss of heat resistance; type: cell-based, Bacillus subtilis
[2] = test system: B. subtilis wild type spores; test: Sensitivity to antibiotic (tetracycline) after stimulation of germination; conditions: for % Loss in viable cells: germinant 60 min at 37° C. (muropeptide 40 μM, bryostatin 1 μM), then tetracycline 10 μg/ml 60 min, relative to no germinant
B. subtilis spores [3] = test: Measurement of germination by fluorescence (Syto-9 dye); type: cell-based, Bacillus subtilis; conditions: 1 μM Bryostatin

## CN[C@@H]1C[C@H]2O[C@@](C)([C@@H]1OC)n1c3ccccc3c3c4c(c5c6ccccc6n2c5c31)C(=O)NC4 [staurosporine]
B. subtilis spores [1]; 10 pM staurosporine, […]
  germination with increasing amounts of peptidoglycan in the presence of inhibitor: did not increase germination
B. subtilis spores [1]; […], 100 ng/ml B. subtilis peptidoglycan, 60 min
  concentration as low as which significantly reduced peptidoglycan-dependent germination: 10 pM
B. subtilis spores [1]; data not shown
  effect on L-alanine germination: unaffected

## CCCCCCCCCCCCCC(=O)O[C@@H]1[C@@H](C)[C@@]2(O)[C@@H](C=C(CO)C[C@]3(O)C(=O)C(C)=C[C@@H]23)[C@@H]2C(C)(C)[C@]12OC(C)=O [PMA, phorbol-12-myristate-13-acetate]
B. subtilis spores [1]
  germination of wild type spores (result in words): chemically induces germination

## GlcNAc-MurNAc tripeptide [Muropeptide]
[2]
  % Loss in viable cells: 72 ± 3%
B. subtilis spores [1]
  concentration as low as which led to germination: 1 µM
  germination of ΔprkC spores (result in words): failed to germinate

## C[C@@H](N)C(=O)O [D-alanine]
B. subtilis spores [1]
  inhibition of cell wall / peptidoglycan dependent germination (result in words): did not block cell wall dependent germination

## C[C@H](N)C(=O)O [L-alanine]
B. subtilis spores [1]
  germination of ΔprkC spores (result in words): still responded
B. subtilis spores [1]; listed as alanine
  germination of ΔprkC spores (result in words): still respond to alanine

## Ala-D-γ-Glu-Dpm tripeptide
B. subtilis spores [1]; wild type B. subtilis spores
  germination of wild type spores (result in words): failed to induce germination

## O=C([O-])c1cccc(C(=O)[O-])n1.[Ca+2] [Ca^2+-dipicolinic acid]
B. subtilis spores [1]
  germination of ΔprkC spores (result in words): still responded

## CC(=O)N[C@H]1C(O)O[C@H](CO)[C@@H](O)[C@@H]1O[C@H](C)C(=O)N[C@@H](C)C(=O)N[C@H](CCC(=O)O)C(N)=O (mixture of isomers) [muramyl dipeptide]
B. subtilis spores [1]
  germination of wild type spores (result in words): failed to induce germination

## CCC/C=C/C=C/C(=O)O[C@H]1/C(=C/C(=O)OC)C[C@H]2C[C@H]([C@@H](C)O)OC(=O)C[C@H](O)C[C@@H]3C[C@H](OC(C)=O)C(C)(C)[C@](O)(C[C@@H]4C/C(=C/C(=O)OC)C[C@H](/C=C/C(C)(C)[C@]1(O)O2)O4)O3 [Bryostatin]
B. subtilis spores [3]; Wild-type spores, 5' at 37° C., excitation/emission 485/530
  Fluorescence Germination Results: 14331
B. subtilis spores [3]; ΔprKC (kinase mutant) spores, 5' at 37° C., 485/530
  Fluorescence Germination Results: 5208
B. subtilis spores [3]; ΔprpC (phosphatase mutant) spores, 5' at 37° C., 485/530
  Fluorescence Germination Results: 13183
B. subtilis spores [3]; ΔprpC, PrpC (phosphatase mutant overexpressing phosphatase from an ectopic site) spores, 485/530
  Fluorescence Germination Results: 5529
[2]
  % Loss in viable cells: 32 ± 7%
[2]; wild type B. subtilis spores, tetracycline and spectinomycin
  sensitivity of treated spores to antibiotics (result in words): become sensitive to the ribosomal antibiotics tetracycline and spectinomycin
B. subtilis spores [1]
  germination of ΔprkC spores (result in words): had no effect
B. subtilis spores [1]; […], 1.0 μM bryostatin, 60 min
  maximum % germination: ~40%

## Teleocidin
B. subtilis spores [1]
  germination of wild type spores (result in words): able to stimulate germination of only the wildtype spore; also recorded: stimulated germination of wildtype spores
  germination of ΔprkC spores (result in words): able to stimulate germination of only the wildtype spore
